Laboratory results reported in patent US20100261219A1, “TEST METHOD OF BIOAVAILABILITY AND BIOEQUIVALENCE FOR XENOBIOTICS USING GENETIC PROFILING” (priority 2008, published 2010).
Read-outs that look alike come from different tables or passages of the source.

What was measured:
[1] = in vivo; cited from earlier work

CCN(CC)CCCC(C)Nc1ccnc2cc(Cl)ccc12 (stereo not shown) [Chloroquine]
t1/2 [1]: 41 days

CC/C(=C(\c1ccccc1)c1ccc(OCCN(C)C)cc1)c1ccccc1 [Tamoxifen]
t1/2 [1]: 8 days

CC/C(=C(\c1ccccc1)c1ccc(OCCNC)cc1)c1ccccc1 [demethyltamoxifen]
t1/2 [1]: 11 days

Cc1nc2n(c(=O)c1CCN1CCC(c3noc4cc(F)ccc34)CC1)CCCC2 [risperidone, Risperidone]
Concentration of risperidone in blood plasma: influence of genotype (genotype of CYP2D6*10): significantly varied | Concentration of risperidone in blood plasma (participants with mutant type, 48 hours after dosing): capable of being measured | Concentration of risperidone in blood plasma (participants with only wild type, 24 hours after dosing): reduced below a measurable level | Concentration of risperidone in blood plasma (wild type participants compared to heterozygous or mutant type (FIG. 7-9)): considerably low
